Test results as given in patent US4273940A, “Bis-(2-benzylaminoethyl)-disulfides” (Abbott Laboratories, priority 1980, dated 1981).
Counter-ions that a name gives are not always drawn. Like-named read-outs stand apart in the source and are kept apart here.

Assays:
[1] = tested on: Type III reactions (reverse passive Arthus lesion); test: reverse passive Arthus assay (Carter and Krause); Type III reaction; assay type: in vivo; conditions: 50 mg./kg. intraperitoneal, group of four animals
Protocol: Upon intraperitoneal administration to a group of four animals at a dose of 50 mg./kg., the lesion area is inhibited an average of 49% by the compound of Example 1 and 47% by the compound of Example 5.

[2] = tested on: carrageenin induced hind paw edema; test: modification of the carrageenin induced hind paw edema assay (Winter et al.); anti-inflammatory activity; assay type: in vivo; conditions: for reduction of carrageenin induced swelling (volume): after 3 hours
human neutrophils = test: inhibition of neutrophil locomotion (intrinsic and chemotactic), in vitro agarose test by the method of Nelson et al.; assay type: cell-based; conditions: 2 hours at 37° C., duplicate, four donors; for inhibition at 100 µM: 10^-4 molar; for inhibition at 10 µM: 10^-5 molar
Protocol: The compounds of this invention show marked anti-inflammatory properties as intraperitoneal or oral doses of 25-200 mg./kg. and at intravenous doses of 10 mg./kg. and above. […] The current compounds also are inhibitors of chemotaxis of human neutrophils at molar concentrations of 0.00001-0.0005, causing 50-100% inhibition of intrinsic and chemotactic locomotion of the cells, as established by the method of Nelson et al. in J. Immunol. 115, 1650 (1975).
By carrying out the in vitro test of Nelson et al. referred to above, the neutrophil locomotor response modification caused by the above compounds was established. For this purpose, the compounds were dissolved in both agarose media and the media suspending the cells. The effects of the compounds were determined by comparing te chemotactic and intrinsic locomotion of the cells, both with and without the test compounds after 2 hours of incubation at 37° C. All compounds were evaluated in duplicate against the cells which were from four individual donors.

[3] = read-out: % Inhibition of Locomotion, Chemotactic
[4] = read-out: % Inhibition of Locomotion, Intrinsic

COc1ccccc1CNCCSSCCNCc1ccccc1OC.Cl.Cl [Example 1, bis(2-methoxybenzylaminoethyl)disulfide dihydrochloride]
inhibition of lesion area (average) [1]: 49%
reduction of carrageenin induced swelling (volume) ([2]; 25 mg./kg. intraperitoneal): 14.6%
reduction of carrageenin induced swelling (volume) ([2]; 50 mg./kg. intraperitoneal): 29.9%
inhibition at 100 µM (human neutrophils; [3]): 100%
inhibition at 100 µM (human neutrophils; [4]): 100%
inhibition at 10 µM (human neutrophils; [3]): 93%
inhibition at 10 µM (human neutrophils; [4]): 94%

Oc1ccccc1CNCCSSCCNCc1ccccc1O [Example 2, bis(2-hydroxybenzylaminoethyl)disulfide]
inhibition at 100 µM (human neutrophils; [3]): 100%
inhibition at 100 µM (human neutrophils; [4]): 100%

Cc1cc(C(C)(C)C)cc(CNCCSSCCNCc2cc(C(C)(C)C)cc(C)c2O)c1O [Example 4, bis(2-hydroxy-3-methyl-5-t-butylbenzylaminoethyl)disulfide dihydrochloride]
inhibition at 100 µM (human neutrophils; [3]): 100%
inhibition at 100 µM (human neutrophils; [4]): 95%
inhibition at 10 µM (human neutrophils; [3]): 48%
inhibition at 10 µM (human neutrophils; [4]): 50%

CC(C)(C)c1cc(Cl)c(O)c(CNCCSSCCNCc2cc(C(C)(C)C)cc(Cl)c2O)c1 [Example 5, bis(2-hydroxy-3-chloro-5-t-butylbenzylaminoethyl)disulfide]
inhibition of lesion area (average) [1]: 47%
inhibition at 100 µM (human neutrophils; [3]): 100%
inhibition at 100 µM (human neutrophils; [4]): 85%
inhibition at 10 µM (human neutrophils; [3]): 46%
inhibition at 10 µM (human neutrophils; [4]): 24%

Clc1cccc(Cl)c1CNCCSSCCNCc1c(Cl)cccc1Cl [Example 6, bis(2,6-dichlorobenzylaminoethyl)disulfide hydrochloride]
inhibition at 100 µM (human neutrophils; [3]): 85%
inhibition at 100 µM (human neutrophils; [4]): 74%

CC(=O)Oc1ccccc1C(=O)O [acetylsalicylic acid, reference compound]
reduction of carrageenin induced swelling (volume), acetylsalicylic acid ([2]; 50 mg/kg., corresponding measurement (3 hours)): 15.4%
